Structures are written as SMILES.

The target of one test is T1, MDM2 (Homo sapiens, UniProt Q00987).
T1 construct: made in house
T1 sequence (Q00987 whole entry): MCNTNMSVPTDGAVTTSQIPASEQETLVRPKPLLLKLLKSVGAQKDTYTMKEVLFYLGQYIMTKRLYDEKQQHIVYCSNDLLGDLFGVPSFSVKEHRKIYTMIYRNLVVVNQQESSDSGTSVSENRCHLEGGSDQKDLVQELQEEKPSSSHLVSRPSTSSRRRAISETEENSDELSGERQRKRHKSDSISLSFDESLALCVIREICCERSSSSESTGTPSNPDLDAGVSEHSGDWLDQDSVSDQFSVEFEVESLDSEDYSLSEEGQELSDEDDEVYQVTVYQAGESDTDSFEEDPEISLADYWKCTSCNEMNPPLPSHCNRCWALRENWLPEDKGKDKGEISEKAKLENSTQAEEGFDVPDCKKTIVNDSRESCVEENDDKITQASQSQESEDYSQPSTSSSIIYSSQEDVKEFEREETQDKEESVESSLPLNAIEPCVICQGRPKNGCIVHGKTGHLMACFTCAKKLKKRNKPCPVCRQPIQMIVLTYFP
In words: Inhibition test of MDM2-P53 (GST-MDM2, Biotin-P53, Anti-GST-Tb, SA-XL665). The test is classed as binding.
Details: not given
Here is the method:
Experimental purpose: To determine the inhibitory activities of the compounds of the present invention on MDM2.
The present experiment uses the following assay methods/instruments/reagents:
Buffer: 1×PBS+0.1% BSA+5 mM DTT; MDM2 Buffer: Buffer+1 mM AEBSF
GST-MDM2: The final concentration is 4 nM, and it is required to formulate a 20 nM (5×) solution. A mother liquor is diluted by 3500 folds, wherein the mother liquor is 10-fold diluted first, and then 350-fold diluted.
Anti-GST-Tb: The final concentration is 2×, and a mother liquor is diluted by 50 folds.
MIX: GST-MDM2, Biotin-P53, SA-XL665 and Anti-GST-Tb were mixed according to a ratio of 4:4:5:5.
Sample: Preparation of a sample (10 mM in DMSO) solution: a. 3 μL sample+7 μL DMSO+20 μL DMSO were formulated to give an initial concentration of 1 mM and mixed well; b. in plate 1, twelve 5-fold serial dilutions (sequentially prepared by adding 10 μL of the last sample to 40 μL DMSO) were prepared and mixed well, individually; c. plate 2 was taken, 45 μL of Buffer was added to each well, and 5 μL of dilution at each concentration was taken from plate 1 and added to the corresponding well in plate 2 (the concentration in well 1 was 100 μM), and mixed well.
1. 18 μL of MIX was added to a 384-well plate, and centrifugation was performed at 4500 rpm for 5 min.
2. 2 μL of sample was added correspondingly to each well, the resultant was centrifuged at 25° C. and 4500 rpm for 5 min, and shaked at 25° C. for 90 min on a shaker.
Readings were obtained from the Microplate reader, and data was processed by Graphpad Prism 6.0.
For `COc1ncc(-c2nc3c(n2C(C)C)C2(C(=O)Nc4cc(Cl)ccc42)N(c2cc(Cl)ccc2C(C)C)C3=O)c(OC)n1` (stereo not drawn) [Example 156, 6-chloro-5′-(5-chloro-2-isopropylphenyl)-2′-(2,4-dimethoxypyrimidin-5-yl)-3′-isopropyl-3′H-spiro[dihydroindole-3,4′-pyrrolo[3,4-d]imidazole]-2,6′(5′H)-dione], half-maximal inhibition (IC50) required 0.0112 µM. On the same count and under the same terms, the same measure for `CCc1ccccc1-c1nc2c(n1C(C)C)[C@]1(C(=O)Nc3cc(Cl)ccc31)N(c1cc(Cl)ccc1C)C2=O` [Example R-7, (R)-6-chloro-5′-(5-chloro-2-methylphenyl)-2′-(2-ethylphenyl)-3′-isopropylisopropyl-3′H-spiro[dihydroindole-3,4′-pyrrolo[3,4-d]imidazole]-2,6′(5′H)-dione]: 36 µM; for `COc1ncncc1-c1nc2c(n1C(C)C)[C@]1(C(=O)Nc3cc(Cl)ccc31)N(c1cc(Cl)ccc1C)C2=O` [Example R-27, (R)-6-chloro-5′-(5-chloro-2-methylphenyl)-3′-isopropyl-2′-(4-methoxypyrimidin-5-yl)-3′H-spiro[dihydroindole-3,4′-pyrrolo[3,4-d]imidazole]-2,6′(5′H)-dione]: 0.924 µM. The same measure, in the same setting: as for `COc1ncc(-c2nc3c(n2C2CC2)[C@]2(C(=O)Nc4cc(Cl)ccc42)N(c2cc(Cl)ccc2C)C3=O)c(OC)n1` [Example R-28, (R)-6-chloro-5′-(5-chloro-2-methylphenyl)-3′-cyclopropane-2′-(2,4-dimethoxypyrimidin-5-yl)-3′H-spiro[dihydroindole-3,4′-pyrrolo[3,4-d]imidazole]-2,6′(5′H)-dione], the figure is 3.11 µM; as for `CCc1ccc(OC)c(-c2nc3c(n2C(C)C)[C@]2(C(=O)Nc4cc(Cl)ccc42)N(c2cc(Cl)ccc2C)C3=O)c1` [Example R-37, (R)-6-chloro-5′-(5-chloro-2-methylphenyl)-2′-(5-ethyl-2-methoxyphenyl)-3′-isopropyl-3′H-spiro[dihydroindole-3,4′-pyrrolo[3,4-d]imidazole]-2,6′(5′H)-dione], 3.11 µM; as for `CCc1ccc(OC)c(-c2nc3c(n2C(C)C)[C@]2(C(=O)Nc4cc(Cl)ccc42)N(c2cccc(Cl)c2)C3=O)c1` [Example R-38, (R)-6-chloro-5′-(3-chlorophenyl)-2′-(5-ethyl-2-methoxyphenyl)-3′-isopropyl-3′H-spiro[dihydroindole-3,4′-pyrrolo[3,4-d]imidazole]-2,6′(5′H)-dione], 1.12 µM.

Compound `COc1ccc(-c2nc3c(n2C(C)C)[C@]2(C(=O)Nc4cc(Cl)ccc42)N(c2cc(Cl)cn(C)c2=O)C3=O)c(OC)c1` [Example R-39, (R)-6-chloro-5′-(5-chloro-1-methyl-2-oxo-1,2-dihydropyridin-3-yl)-2′-(2,4-dimethoxyphenyl)-3′-isopropyl-3′H-spiro[dihydroindole-3,4′-pyrrolo[3,4-d]imidazole]-2,6′(5′H)-dione] yielded an IC50 of 1.85 µM.

Compound `COc1ncc(-c2nc3c(n2C2CCC2)[C@]2(C(=O)Nc4cc(Cl)ccc42)N(c2cc(Cl)ccc2C)C3=O)c(OC)n1` [Example R-41, (R)-6-chloro-5′-(5-chloro-2-methylphenyl)-3′-cyclobutyl-2′-(2,4-dimethoxypyrimidin-5-yl)-3′H-spiro[dihydroindole-3,4′-pyrrolo[3,4-d]imidazole]-2,6′(5′H)-dione] yielded an IC50 of 7.32 µM. Against the preceding compound, the IC50 is about 4-fold higher. The same measure, in the same setting: the same measure for `COc1ccccc1-c1nc2c(n1C(C)C)[C@]1(C(=O)Nc3cc(Cl)ccc31)N(c1cc(Cl)cn(C)c1=O)C2=O` [Example R-43, (R)-6-chloro-5′-(5-chloro-1-methyl-2-oxo-1,2-dihydropyridin-3-yl)-3′-isopropyl-2′-(2-methoxyphenyl)-3′H-spiro[dihydroindole-3,4′-pyrrolo[3,4-d]imidazole]-2,6′(5′H)-dione]: 0.13 µM. The same measure, in the same setting: as for `CNC(=O)c1ccc(-c2nc3c(n2C(C)C)[C@]2(C(=O)Nc4cc(Cl)ccc42)N(c2cc(Cl)ccc2C)C3=O)c(OC)c1` [Example R-54, (R)-4-(6-chloro-5′-(5-chloro-2-methylphenyl)-3′-isopropyl-2,6′-dioxo-5′,6′-dihydro-3′H-spiro[dihydroindole-3,4′-pyrrolo[3,4-d]imidazole]-2′-yl)-3-methoxy-N-methylbenzamide], the figure is 1.96 µM; as for `COc1ncc(-c2nc3c(n2C(C)C)[C@]2(C(=O)Nc4cc(Cl)ccc42)N(c2ccc(C(N)=O)c(Cl)c2)C3=O)c(OC)n1` [Example R-60, (R)-2-chloro-4-(6-chloro-2′-(2,4-dimethoxypyrimidin-5-yl)-3′-isopropyl-2,6′-dioxo-3′,6′-dihydro-5′H-spiro[dihydroindole-3,4′-pyrrolo[3,4-d]imidazole]-5′-yl)benzamide], 1.07 µM. Same read-out and setting: as for `COc1ccc(N2C(=O)c3nc(-c4ccccc4OC)n(C(C)C)c3[C@]23C(=O)Nc2cc(Cl)ccc23)cc1Cl` [Example R-63, (R)-6-chloro-5′-(3-chloro-4-methoxyphenyl)-3′-isopropyl-2′-(2-methoxyphenyl)-3′H-spiro[dihydroindole-3,4′-pyrrolo[3,4-d]imidazole]-2,6′(5′H)-dione], the figure is 0.537 µM; as for `COc1ccc(-c2nc3c(n2C(C)C)[C@]2(C(=O)Nc4cc(Cl)ccc42)N(c2cc(Cl)ccc2C)C3=O)cc1` [Example R-64, (R)-6-chloro-5′-(5-chloro-2-methylphenyl)-3′-isopropyl-2′-(4-methoxyphenyl)-3′H-spiro[dihydroindole-3,4′-pyrrolo[3,4-d]imidazole]-2,6′(5′H)-dione], 1.02 µM. With `COc1cc(OC)c(-c2nc3c(n2C(C)C)[C@]2(C(=O)Nc4cc(Cl)ccc42)N(c2ccc(C(N)=O)c(Cl)c2)C3=O)cn1` [Example R-65, (R)-2-chloro-4-(6-chloro-2′-(4,6-dimethoxypyridin-3-yl)-3′-isopropyl-2,6′-dioxo-3′,6′-dihydro-5′H-spiro[dihydroindole-3,4′-pyrrolo[3,4-d]imidazole]-5′-yl)benzamide], the IC50 is 0.498 µM. Compared with the last compound, the IC50 is about 2-fold lower. In turn, `COc1cc(C(=O)N(C)C)ccc1-c1nc2c(n1C(C)C)[C@]1(C(=O)Nc3cc(Cl)ccc31)N(c1cc(Cl)ccc1C)C2=O` [Example R-68, (R)-4-(6-chloro-5′-(5-chloro-2-methylphenyl)-3′-isopropyl-2,6′-dioxo-5′,6′-dihydro-3′H-spiro[dihydroindole-3,4′-pyrrolo[3,4-d]imidazole]-2′-yl)-3-methoxy-N,N-dimethylbenzamide] came in with an IC50 of 0.657 µM. The IC50 values of the last two compounds are within 1.5-fold of each other.

Still in this test, the particulars now being: labels are Example numbers; the compounds with S-configuration are meant.
As to `COc1cc(OC(F)F)ncc1-c1nc2c(n1C(C)C)C1(C(=O)Nc3cc(Cl)ccc31)N(c1cc(Cl)ccc1C)C2=O` (stereo not drawn) [Example 150, 6-chloro-5′-(5-chloro-2-methylphenyl)-2′-(6-(difluoromethoxy)-4-methoxypyridin-3-yl)-3′-isopropyl-3′H-spiro[dihydroindole-3,4′-pyrrolo[3,4-d]imidazole]-2,6′(5′H)-dione], the “inhibitory effect on MDM2 compared with positive control compound HDM201” value is listed as “better”. Still for that read-out and setting: as for `COc1cc(C(F)(F)F)ncc1-c1nc2c(n1C(C)C)C1(C(=O)Nc3cc(Cl)ccc31)N(c1cc(Cl)cnc1C)C2=O` (stereo not drawn) [Example 152, 6-chloro-5′-(5-chloro-2-methylpyridin-3-yl)-3′-isopropyl-2′-(4-methoxy-6-(trifluoromethyl)pyridine-3-yl)-3′H-spiro[dihydroindole-3,4′-pyrrolo[3,4-d]imidazole]-2,6′(5′H)-dione], the entry is “better”; as for `COc1cc(OCCF)ncc1-c1nc2c(n1C(C)C)C1(C(=O)Nc3cc(Cl)ccc31)N(c1cc(Cl)ccc1C)C2=O` (stereo not drawn) [Example 163, 6-chloro-5′-(5-chloro-2-methylphenyl)-2′-(6-(2-fluoroethoxy)-4-methoxypyridin-3-yl)-3′-isopropyl-3′H-spiro[dihydroindole-3,4′-pyrrolo[3,4-d]imidazole]-2,6′(5′H)-dione], “better”; as for `COc1nc(OCCF)ncc1-c1nc2c(n1C(C)C)C1(C(=O)Nc3cc(Cl)ccc31)N(c1cc(Cl)cnc1C)C2=O` (stereo not drawn) [Example 170, 6-chloro-5′-(5-chloro-2-methylpyridin-3-yl)-2′-(2-(2-fluoroethoxy)-4-methoxypyrimidin-5-yl)-3′-isopropyl-3′H-spiro[dihydroindole-3,4′-pyrrolo[3,4-d]imidazole]-2,6′(5′H)-dione], “better”. As to `COc1cc(OCCF)ncc1-c1nc2c(n1C(C)C)C1(C(=O)Nc3cc(Cl)ccc31)N(c1cc(Cl)cnc1C)C2=O` (stereo not drawn) [Example 173, 6-chloro-5′-(5-chloro-2-methylpyridin-3-yl)-2′-(6-(2-fluoroethoxy)-4-methoxypyridin-3-yl)-3′-isopropyl-3′H-spiro[dihydroindole-3,4′-pyrrolo[3,4-d]imidazole]-2,6′(5′H)-dione], the “inhibitory effect on MDM2 compared with positive control compound HDM201” value is on record as “better”. The same measure, in the same setting: as for `COc1cc(OC)c(-c2nc3c(n2C(C)C)C2(C(=O)Nc4cc(Cl)ccc42)N(c2cc(F)cc(Cl)c2)C3=O)cn1` (stereo not drawn) [Example 175, 6-chloro-5′-(3-chloro-5-fluorophenyl)-2′-(4,6-dimethoxypyridin-3-yl)-3′-isopropyl-3′H-spiro[dihydroindole-3,4′-pyrrolo[3,4-d]imidazole]-2,6′(5′H)-dione], the entry is “better”.

These data come from patent publication US11339171B2, “MDM2 inhibitors” (Gan & Lee Pharmaceuticals, priority 2017, dated 2022).
